In patent US8835644B2, “Broad spectrum benzothiophene-nitrothiazolide and other antimicrobials” (University of Virginia Patent Foundation, priority 2009, dated 2014):
In brackets after ≈: the same amount, converted by molar mass. Like-named read-outs stand apart in the source and are kept apart here. Marks after values point to notes of the source that are not given here.

How the values were obtained:
E. coli = assay: MIC testing by broth dilution, E. coli plank; assay type: cell-based, Escherichia coli
Outline: (§1)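 Values are broth-dilution MICs, defined as the well showing no growth on visual reading after 24 h; the tested range was 32 to 0.06 μg/ml, in organism-specific media (LB, Trypticase Soy, Brain Heart Infusion). The C. difficile entries come instead from anaerobic Kirby-Bauer disk zones, normalised to NTZ.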

C. difficile = assay: Disk diffusion (Kirby Bower), C. difficile; assay type: cell-based, Clostridium difficile; settings: for Disk Diff (%) C. difficile: Nitazoxanide = 100; for Disk Diffusion (%) C. difficile: zone of inhibited growth as relative ratio to the zone for NTZ
Outline: as §1

H. pylori = assay: MIC testing by broth dilution, H. pylori; assay type: cell-based, Helicobacter pylori
Outline: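 Broth dilution MIC determination against H. pylori: a standard inoculum in 100 microliters of Brain Heart Infusion medium was placed in 96 well microplates. Test compounds began at 32 μg/ml in 200 microliters in well one and were serially diluted over a 32 to 0.06 range. After 24 h, plates were scored by eye and the first well without growth was recorded as the MIC.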

S. epidermidis = assay: MIC testing by broth dilution, S. epidermidis plank; assay type: cell-based, Staphylococcus epidermidis
Outline: as §1

C. jejuni = assay: MIC testing by broth dilution, C. jejuni; assay type: cell-based, Campylobacter jejuni
Outline: as §1

[1] = test system: PFOR (pyruvate ferredoxin oxidoreductase); assay: Direct PFOR enzyme assay; assay type: biochemical
Protocol: Representative compounds of the invention were tested in a series of assays against a series of organisms as described above. […] The organisms tested include, C. difficile, H. pylori, C. jejuni, MRSA, S. epidermidis, and E. coli. S. epidermidis and E. coli were tested in the plank and biofilm assay. A disk diffusion assay was also used for C. difficile. Direct PFOR enzyme assays were also performed. All analogues and derivatives were not tested on every organism in every type of assay (the “-” in each table means that it was not tested).

MRSA = assay: MIC testing by broth dilution, MRSA; assay type: cell-based, Staphylococcus aureus
Outline: as §1

[2] = broth dilution, LB medium, 24 h, read-out: MIC (μM) E. coli Plank
[3] = broth dilution, Brain Heart Infusion, 24 h, read-out: MIC (μM) H. pylori
[4] = broth dilution, Trypticase Soy, 24 h, read-out: MIC (μM) S. epidermidis Plank
[5] = broth dilution, Brain Heart Infusion, 24 h, read-out: MIC (μM) C. jejuni
[6] = broth dilution, Trypticase Soy, 24 h, read-out: MIC (μM) MRSA
[7] = Escherichia coli, 24 h, read-out: MIC (μM) E. coli Plank
[8] = Helicobacter pylori, 24 h, read-out: MIC (μM) H. pylori
[9] = Campylobacter jejuni, 24 h, read-out: MIC (μM) C. jejuni
[10] = planktonic, 2-amino-3,5-dinitrothiophene analogues table, read-out: MIC E. coli Plank
[11] = 2-amino-3,5-dinitrothiophene analogues table
[12] = 2-amino-3,5-dinitrothiophene analogues table, read-out: MIC H. pylori
[13] = planktonic, 2-amino-3,5-dinitrothiophene analogues table, read-out: MIC S. epidermidis Plank
[14] = 2-amino-3,5-dinitrothiophene analogues table, read-out: MIC C. jejuni
[15] = * biphasic initial inhibition followed by uninhibited rate, ** caused some precipitant in extract
[16] = 2-amino-3,5-dinitrothiophene analogues table, read-out: MIC MRSA

Structure (SMILES) | Disk Diffusion (%) C. difficile (C. difficile) | PFOR inhibition relative to nitazoxanide (=100) [1] | MIC (E. coli; [10]) | Disk Diff (%) C. difficile (C. difficile; [11]) | MIC (H. pylori; [12]) | MIC (S. epidermidis; [13]) | MIC (C. jejuni; [14]) | PFOR inhibition relative to nitazoxanide (=100) [1, 15] | MIC (MRSA; [16]) | further results
O=C(Nc1ncc([N+](=O)[O-])s1)c1ccsc1 [VPC16a1008] |  |  |  |  |  |  |  |  |  | MIC (E. coli; planktonic, Thiophene analogues table, read-out: MIC E. coli Plank): 125.4 µM (≈ 32 µg/mL); Disk Diff (%) C. difficile (C. difficile; Thiophene analogues table): 100%; MIC (H. pylori; Thiophene analogues table, read-out: MIC H. pylori): 0.7 µM (≈ 0.179 µg/mL); MIC (S. epidermidis; planktonic, Thiophene analogues table, read-out: MIC S. epidermidis Plank): 15.7 µM (≈ 4.01 µg/mL); MIC (C. jejuni; Thiophene analogues table, read-out: MIC C. jejuni): 5.9 µM (≈ 1.51 µg/mL); PFOR inhibition relative to nitazoxanide (=100) ([1]; Thiophene analogues table): 96%; MIC (MRSA; Thiophene analogues table, read-out: MIC MRSA): 23.5 µM (≈ 6 µg/mL)
O=C(Nc1ncc([N+](=O)[O-])s1)c1cc(C(F)(F)F)cc(C(F)(F)F)c1 [VPC16a1039] | 80% | 54* % |  |  |  |  |  |  |  | MIC (E. coli; [2]): 83.1 µM (≈ 32 µg/mL); MIC (H. pylori; [3]): 5.2 µM (≈ 2 µg/mL); MIC (S. epidermidis; [4]): 1.9 µM (≈ 0.732 µg/mL); MIC (C. jejuni; [5]): 41.5 µM (≈ 16 µg/mL); MIC (MRSA; [6]): 2.6 µM (≈ 1 µg/mL)
O=C(Nc1ncc([N+](=O)[O-])s1)c1cc(C(F)(F)F)ccc1Cl [VPC16a1040] | 90% | 68% |  |  |  |  |  |  |  | MIC (E. coli; [2]): 91.0 µM (≈ 32 µg/mL); MIC (H. pylori; [3]): 1.1 µM (≈ 0.387 µg/mL); MIC (S. epidermidis; [4]): 22.7 µM (≈ 7.98 µg/mL); MIC (C. jejuni; [5]): 17.1 µM (≈ 6.01 µg/mL); MIC (MRSA; [6]): 22.7 µM (≈ 7.98 µg/mL)
O=C(Nc1ncc([N+](=O)[O-])s1)c1cccnc1F [VPC16a1052, 2-Fluoro-N-(5-nitrothiazol-2-yl)nicotinamide] | 100% | 91% |  |  |  |  |  |  |  | MIC (E. coli; [7]): 119 µM (≈ 32 µg/mL); MIC (H. pylori; [8]): 3.7 µM (≈ 0.992 µg/mL); MIC (C. jejuni; [9]): 7.5 µM (≈ 2.01 µg/mL)
O=C(Nc1ncc([N+](=O)[O-])s1)c1ccc(Cl)c(C(F)(F)F)c1 [VPC16a1060] | 89% | 63* % |  |  |  |  |  |  |  | MIC (E. coli; [7]): 91 µM (≈ 32 µg/mL); MIC (H. pylori; [8]): 2.8 µM (≈ 0.985 µg/mL); MIC (C. jejuni; [9]): 2.8 µM (≈ 0.985 µg/mL)
O=C(Nc1sc([N+](=O)[O-])cc1[N+](=O)[O-])c1ccccc1 [VPC16b1090] |  |  | 109.1 µM (≈ 32 µg/mL) | 0% | 1.3 µM (≈ 0.381 µg/mL) | 5.1 µM (≈ 1.5 µg/mL) | 0.9 µM (≈ 0.264 µg/mL) | 100** % | 109.1 µM (≈ 32 µg/mL) | 
O=C(Nc1sc([N+](=O)[O-])cc1[N+](=O)[O-])c1cccc(C(F)(F)F)c1 [VPC16b1092] |  |  | 88.6 µM (≈ 32 µg/mL) | 59% | 0.5 µM (≈ 0.181 µg/mL) | 0.2 µM (≈ 0.0723 µg/mL) | 2.1 µM (≈ 0.759 µg/mL) | 87** % | 1.4 µM (≈ 0.506 µg/mL) | 
O=C(Nc1sc([N+](=O)[O-])cc1[N+](=O)[O-])c1cccs1 [VPC16b1093, N-(3,5-Dinitrothiophen-2-yl)thiophene-2-carboxamide] |  |  |  | 43% |  |  |  | 143% |  | MIC (E. coli; Escherichia coli, read-out: MIC E. coli Plank): 107 µM (≈ 32 µg/mL); MIC (H. pylori; Helicobacter pylori, read-out: MIC H. pylori): 2.5 µM (≈ 0.748 µg/mL); MIC (S. epidermidis; Staphylococcus epidermidis, read-out: MIC S. epidermidis Plank): 13.4 µM (≈ 4.01 µg/mL); MIC (C. jejuni; Campylobacter jejuni, read-out: MIC C. jejuni): 1 µM (≈ 0.299 µg/mL); MIC (MRSA; Staphylococcus aureus, MRSA, read-out: MIC MRSA): 26.7 µM (≈ 7.99 µg/mL)
O=C(Nc1sc([N+](=O)[O-])cc1[N+](=O)[O-])c1ccoc1 [VPC16b1094] |  |  | 113.0 µM (≈ 32 µg/mL) | 53% | 2.7 µM (≈ 0.765 µg/mL) | 28.2 µM (≈ 7.99 µg/mL) | 0.4 µM (≈ 0.113 µg/mL) | 126* % | 56.5 µM (≈ 16 µg/mL) | 
O=C(Nc1sc([N+](=O)[O-])cc1[N+](=O)[O-])c1ccc(Br)o1 [VPC16b2023] |  |  |  |  | 2.1 µM (≈ 0.76 µg/mL) | 88.4 µM (≈ 32 µg/mL) | 2.8 µM (≈ 1.01 µg/mL) | 94** % | 33.1 µM (≈ 12 µg/mL) | 
